A short description of data set [1]: therapeutic activity of the oxidized forms. The note with it: in vivo. From the text: (§1) Although NADH and/or NADPH may be used by themselves in pure form (they are quite stable in compressed form when protected from light), it is preferred that they be combined in a galenic formulation with a stabilizer, and most preferably with both a stabilizer and a filler. The use of a stabilizer is preferred to prevent oxidation of NADH and NADPH to NAD^+ and […] , respectively. Although, NADH and NADPH are active for the variety of therapeutic effects discussed above, NAD^+ and NADP^+ are ineffective. Therefore, oxidation of NADH and NADPH must be prevented during storage to provide for a reasonable shelf life. […] NADH/NADPH formulations containing such stabilizers are stable for up to two years. Other various stabilizers will become apparent tc those skilled in the art.

A short description of data set [2]: dissolution in fluids secreted by the olfactory mucous membrane. The class given is physicochemical. Conditions: fluids of the olfactory epithelium. The protocol: Thus, in accordance with the invention, the NADH may be administered to the nasal cavity of a patient afflicted with Parkinson's disease, Alzheimer's disease or mental depression. The NADH may be applied alone or in combination with other substances, for example, a pharmaceutically acceptable carrier or an agent that facilitates the transfer of the NADH through the nasal mucosa. The NADH is administered intranasally as a powder, spray, gel, ointment, infusion, injection or nose drops. The NADH is delivered to the nasal cavity. It is preferred that the NADH be delivered to the olfactory area in the upper third of the nasal cavity, and particularly to the olfactory neuroepithelium in order to promote transport of the NADH into the peripheral olfactory neurons rather than the capillaries within the respiratory epithelium. It is preferred that the transport of NADH to the brain be by means of the nervous system rather than the circulatory system so that the blood-brain barrier from the bloodstream into the brain is circumvented. However, good results can also be obtained through the bloodstream. […] The NADH may be combined with a carrier or other substance that fosters dissolution within nasal secretions, such as the ganglioside GM-1 or the phospolipid phosphatidylserine, or emulsifiers such as polysorbate 80. […]

The test system of data set [3] is mitochondria. Briefly: stimulation of mitochondrial energy production of skin cells. Type of data set: cell-based. An excerpt: (§2) The NADH encapsulated by the liposomes is simply applied topically to the skin, and is rubbed into the skin to ensure penetration.
Data set [4] has as its system skin cells. Briefly: topical application: skin cell life, water uptake, wrinkles. The class given is in vivo.
From the text: as §2

Data set [5] can be described thus: nasal absorption and transport to the brain. The class given is in vivo. Conditions: inhaled through nasal passages. An excerpt: For a powder spray, the NADH is simply ground into a fine powder and atomized from a spray bottle. Preferably, pure NADH is used for the powder spray, however, it can be used in conjunction with a filler, such as mannitol, as described below.

Data set [6] concerns mitochondrial enzymes. As to the kind of experiment: stimulation of enzymes essential for the energy production of skin cells. Type of data set: cell-based. Conditions: topical. From the text: In accordance with the invention, an NADH and/or NADPH composition is provided for topical application to the skin. […] The enzymes stimulated are principally the mitochondrial enzymes. The NADH and/or NADPH can be incorporated into a skin compatible cream, lotion or cosmetic, or can be combined with micelles of lipophilic substances. Liposomes are preferred vesicles for delivering the greatest dosages of NADH and/or NADPH into the skin.

Data set [7] deals with Parkinson's disease. The note with it: intravenous, patients with Parkinson's disease; cited from earlier work.
Data set [8] relates to Parkinson's disease. As to the kind of experiment: nasal administration in Parkinson's disease. The class given is in vivo, human. From the text: (§3) However, I have now discovered that NADH and/or NADPH is also effective when administered topically (as described above for prolonging the life of skin cells and reducing wrinkles), sublingually, rectally and nasally.
For data set [9], the system named is Alzheimer's disease. Conditions: orally or intravenously; cited from earlier work.
Data set [10] deals with Parkinsonian patients. Briefly: motor system in Parkinsonian patients. The class given is in vivo, human. Conditions: sublingual, rectal or nasal; single 5 to 500 mg, daily 5 to 1,500 mg. The protocol: A suitable single dose of NADH and/or NADPH for sublingual, rectal or nasal application is 5 to 500 mg, preferably 25 to 100 mg. A suitable daily dose is 5 to 1,500 mg, preferably 25 to 300 mg.

For data set [11] the following is noted: after intravenous application; cited from earlier work.
In data set [12] the test system is Alzheimer's disease. Briefly: nasal administration in Alzheimer's disease. The class given is in vivo, human.
From the text: as §3

For data set [13] the following is noted: oral form; cited from earlier work.
A short description of data set [14]: sublingual administration. Type of data set: in vivo. An excerpt: The NADH is merely placed underneath the tongue and resorbed. Unlike the oral form of NADH described in U.S. Pat. No. 5,332,727, a sublingual form should not be coated with an acid stable protective coating.
Data set [15] is described as follows: rectal administration (suppositories). The class given is in vivo. As to the method:
It has also been discovered that good results are obtained when NADH is administered rectally. […] NADH may be administered rectally in the form of suppositories. A suitable suppository formulations are: […]

Data set [16] is described as follows: shelf/storage stability of pure substance and formulations. The class given is physicochemical. Conditions: protected from light.
From the text: as §1
In general, a preferred formulation will include about 3 to 10% by weight NADH and/or NADPH; about 1 to 10% by weight stabilizer; and the remainder as filler. Such a formulation, after being compressed into a pill and coated, is stable for over 24 months.

Data set [17] concerns Parkinson's disease. The note with it: earlier patents; cited from earlier work.
Data set [18] concerns skin proliferation layer cells. Type of data set: in vivo. The note with it: topical; for penetration of cutis and entry into cells of the skin proliferation layer: radiolabelled.
Data set [19] can be described thus: stability against pH. The class given is physicochemical. An excerpt:
The NADH may be entrapped in the liposomes in either of two ways. The NADH may be dissolved in the organic solvent together with the lipid(s) and the detergent(s) during the liposome formation. By this procedure, the NADH will be present in the lipid film before the film is solubilized. Alternatively, the NADH may be entrapped by dissolving it in the aqueous solvent (preferably buffered) before the lipid film is exposed to the aqueous solvent. It is important that the aqueous solution of NADH not have a pH below 7 as NADH (and NADPH) are very unstable at pHs below 7. This second method of entrapment (i.e., dissolving NADH in aqueous solution) is preferred.

Data set [20] in a line: compatibility with lactose. The class given is physicochemical. Conditions: lactose as filler. An excerpt:
Suitable fillers for use with NADH and NADPH include: mannitol, microcrystalline cellulose, carboxymethyl cellulose; and dibasic calcium phosphate. Other suitable fillers will become apparent to those skilled in the art.

The test system of data set [21] is cell degeneration. Conditions: presence of uncoupled mitochondria; cited from earlier work.

The values that follow come from patent publication US5952312A, “NADH and NADPH therapeutic agents for nasal, sublingual, rectal and dermal administration” (Birkmayer Pharmaceuticals, Inc., priority 1998, dated 1999).

The structures appear in SMILES notation. “Also recorded” adds a separate entry of the source. Counter-ions that a name gives are not always drawn.

Take `NC(=O)c1ccc[n+]([C@@H]2O[C@H](COP(=O)([O-])OP(=O)(O)OC[C@H]3O[C@@H](n4cnc5c(N)ncnc54)[C@H](O)[C@@H]3O)[C@@H](O)[C@H]2O)c1` [NAD^+]: the “therapeutic effectiveness of oxidized forms” value in data set [1] is “ineffective”.
The same measure, in the same setting: the value for `NC(=O)c1ccc[n+]([C@@H]2O[C@H](COP(=O)([O-])OP(=O)(O)OC[C@H]3O[C@@H](n4cnc5c(N)ncnc54)[C@H](OP(=O)(O)O)[C@@H]3O)[C@@H](O)[C@H]2O)c1` [NADP^+] was “ineffective”.
As to `NC(=O)C1=CN([C@@H]2O[C@H](COP(=O)(O)OP(=O)(O)OC[C@H]3O[C@@H](n4cnc5c(N)ncnc54)[C@H](O)[C@@H]3O)[C@@H](O)[C@H]2O)C=CC1` [NADH, nicotinamide adenine dinucleotide in its reduced form], the “dissolution in nasal secretions” value in data set [2] is on record as “capable of at least partially dissolving in the fluids”. Moreover, the “distribution to mitochondria and stimulation of energy production of the cell” value in data set [3] was “goes to the mitochondria where it stimulates the energy production of the cell”. In addition, in data set [4], the cell life result was “prolonged cell life” and the “water uptake by the cell / wrinkle formation” value is recorded as “increased water uptake by the cell, thereby reducing wrinkle formation”. The “nasal absorption and transport to the brain” value in data set [5] is “travels directly to the brain, circumventing the blood-brain barrier; also recorded: absorbed by the mucosa of the nose and travels to the brain through the olfactory neural pathway”. In data set [6], the “stimulation of enzymes essential for energy production of skin cells” value was “stimulate certain enzymes which are essential for the energy production of the cells”. For the same compound, in data set [7], the beneficial effect result is listed as “remarkable beneficial effect” and the “duration of beneficial effect” value is on record as “at least 24 hours”. Moreover, in data set [8] (nasal), the “effectiveness by nasal application in Parkinson's disease” value was “particularly effective in the treatment of Alzheimer's disease and Parkinson's disease”. The “therapeutic effects, nasal vs oral form” value in [8] (nasal powder spray) is given as “same therapeutic effects as the oral form”. Further, the “effectiveness in Alzheimer's disease” value in data set [9] is “effective in the treatment of Parkinson's disease and Alzheimer's disease”. Moreover, in data set [10], the “effect on motor system” value is “improve the motor system in Parkinsonian patients”. The “degradation in plasma and blood” value in data set [11] is “not rapidly degraded in the plasma and blood”. For the same compound, in data set [12], the “effectiveness by nasal application in Alzheimer's disease” value is “particularly effective in the treatment of Alzheimer's disease” and the “speed of results, nasal” value is “very fast results”. In addition, in data set [13], the “absorption by the intestine” value is “absorbed by the intestine”. In addition, in [14], the “effectiveness when administered sublingually” value was “effective when administered sublingually” and the “speed of results, sublingual” value is recorded as “very fast results”. The “results when administered rectally” value in data set [15] was “good results”. In addition, the “speed of results, rectal” value in data set [15] (compared with nasal or sublingual) was “not obtained as quickly as in the case of nasal or sublingual administration”. Moreover, in [16], the “stability in pure compressed form” value is “quite stable”. Also, the “usefulness/effectiveness in Parkinson's disease” value in data set [17] was “effective in the treatment of Parkinson's disease; also recorded: useful in the treatment of Parkinson's Disease”. Further, in [18], the “absorption by the skin and uptake by the skin cells” value is “absorbed by the skin and penetrate the cutis to be taken up by the skin cells”; the “entry into cells of the proliferation layer, not encapsulated by liposomes” value is “enters the cells of the proliferation layer”; the “penetration of cutis and entry into cells of the skin proliferation layer” value was “crosses the cutis and enters the cells which comprise the skin proliferation layer”. In addition, the “stability at pH below 7” value in data set [19] is on record as “very unstable”. In [20], the reaction with lactose entry is “reacts with NADH”.
For the compound `NC(=O)C1=CN([C@@H]2O[C@H](COP(=O)(O)OP(=O)(O)OC[C@H]3O[C@@H](n4cnc5c(N)ncnc54)[C@H](OP(=O)(O)O)[C@@H]3O)[C@@H](O)[C@H]2O)C=CC1` [NADPH, nicotinamide adenine phosphate dinucleotide in its reduced form], the “dissolution in nasal secretions” value in [2] was “capable of at least partially dissolving in the fluids”. Besides, the “distribution to mitochondria and stimulation of energy production of the cell” value in data set [3] was “goes to the mitochondria where it stimulates the energy production of the cell”. Moreover, in data set [4], the cell life result is “prolonged cell life” and the “water uptake by the cell / wrinkle formation” value is on record as “increased water uptake by the cell, thereby reducing wrinkle formation”. For the same compound, the “stimulation of enzymes essential for energy production of skin cells” value in [6] is listed as “stimulate certain enzymes which are essential for the energy production of the cells”. Further, in data set [7], the beneficial effect result was “remarkable beneficial effect” and the “duration of beneficial effect” value is listed as “at least 24 hours”. Besides, the “effectiveness in Alzheimer's disease” value in data set [9] is “effective in the treatment of Parkinson's disease and Alzheimer's disease”. In data set [10], the “effect on motor system” value is recorded as “improve the motor system in Parkinsonian patients”. In addition, in data set [11], the “degradation in plasma and blood” value is “not rapidly degraded in the plasma and blood”. In addition, in data set [13], the “absorption by the intestine” value is “absorbed by the intestine”. In addition, the “effectiveness when administered sublingually” value in [14] was “effective when administered sublingually”. Further, the “stability in pure compressed form” value in data set [16] was “quite stable”. The “usefulness/effectiveness in Parkinson's disease” value in [17] is given as “effective in the treatment of Parkinson's disease; also recorded: useful in the treatment of Parkinson's Disease”. Moreover, in [18], the “absorption by the skin and uptake by the skin cells” value was “absorbed by the skin and penetrate the cutis to be taken up by the skin cells”; the “entry into cells of the proliferation layer, not encapsulated by liposomes” value was “enters the cells of the proliferation layer”; the “penetration of cutis and entry into cells of the skin proliferation layer” value is “crosses the cutis and enters the cells which comprise the skin proliferation layer”. The “stability at pH below 7” value in [19] is “very unstable”.
In the case of `C[C@@H](O)CC(=O)O` [D(-)-β-hydroxybutyrate sodium salt], the “inhibition of cell degeneration” value in data set [21] is listed as “inhibited cell degeneration resulting from the presence of uncoupled mitochondria in a dose dependent manner”.
